Assay results taken from ChEMBL document CHEMBL5032495, “Discovery of Novel Tacrine-Pyrimidone Hybrids as Potent Dual AChE/GSK-3 Inhibitors for the Treatment of Alzheimer's Disease” (J Med Chem, 2021).
Activity calls are given as the source filed them. No cut-off for these calls is given here.

How the values were obtained:
[1] = molecular target: T1, Acetylcholinesterase (Mus musculus, UniProt P21836); test: Inhibition of mouse AChE using acetylthiocholine iodide as substrate incubated for 20 mins by Ellman's method
T1 sequence (P21836 whole entry): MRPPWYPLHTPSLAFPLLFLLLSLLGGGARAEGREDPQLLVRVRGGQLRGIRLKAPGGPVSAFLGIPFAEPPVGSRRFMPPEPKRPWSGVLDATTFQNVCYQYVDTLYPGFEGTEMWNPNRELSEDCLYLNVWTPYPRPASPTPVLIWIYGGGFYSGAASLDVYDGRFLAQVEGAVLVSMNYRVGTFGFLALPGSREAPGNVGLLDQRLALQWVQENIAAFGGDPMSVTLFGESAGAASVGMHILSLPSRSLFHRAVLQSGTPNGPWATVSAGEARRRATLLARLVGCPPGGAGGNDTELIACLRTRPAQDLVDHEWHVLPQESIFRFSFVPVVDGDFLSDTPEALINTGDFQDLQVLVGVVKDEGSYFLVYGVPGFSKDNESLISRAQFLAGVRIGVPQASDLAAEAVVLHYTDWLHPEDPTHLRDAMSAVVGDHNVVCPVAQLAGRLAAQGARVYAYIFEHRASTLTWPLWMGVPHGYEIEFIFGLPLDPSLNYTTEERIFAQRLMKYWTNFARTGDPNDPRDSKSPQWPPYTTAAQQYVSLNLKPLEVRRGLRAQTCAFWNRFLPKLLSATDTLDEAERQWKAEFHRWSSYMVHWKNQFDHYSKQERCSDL

[2] = molecular target: T2, Glycogen synthase kinase-3 beta (Homo sapiens, UniProt P49841); test: Inhibition of human recombinant GSK-3beta using prephosphorylated polypeptide as substrate incubated for 30 mins in presence of ATP by Kinase-Glo luminescence assay relative to control
Target sequence in this assay (P49841 whole entry, looked up): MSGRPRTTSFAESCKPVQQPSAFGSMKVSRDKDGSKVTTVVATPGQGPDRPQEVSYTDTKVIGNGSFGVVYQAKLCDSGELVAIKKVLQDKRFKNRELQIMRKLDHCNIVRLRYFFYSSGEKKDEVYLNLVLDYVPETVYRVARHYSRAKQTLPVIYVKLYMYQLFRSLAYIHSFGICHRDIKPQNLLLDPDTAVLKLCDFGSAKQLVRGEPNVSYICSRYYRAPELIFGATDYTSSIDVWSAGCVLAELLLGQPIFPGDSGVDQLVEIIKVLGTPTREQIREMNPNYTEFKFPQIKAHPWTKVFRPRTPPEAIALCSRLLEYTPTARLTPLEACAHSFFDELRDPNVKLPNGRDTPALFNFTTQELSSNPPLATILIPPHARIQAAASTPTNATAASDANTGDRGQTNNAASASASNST

[3] = molecular target: T2, Glycogen synthase kinase-3 beta
Target sequence in this assay (P49841 whole entry): as the sequence (P49841 whole entry, looked up) above

[4] = test system: SH-SY5Y; test: Neuroprotective activity against glyceraldehyde-induced neurotoxicity in human SH-SY5Y cells assessed as increase in cell viability at 0.5 to 5 uM incubated for 24 hrs by MTT assay; assay type: functional, cell-based; details: dose 0.5-5 µM
[5] = test system: SH-SY5Y; test: Neuroprotective activity in human SH-SY5Y cells assessed as prevention of glyceraldehyde-induced neurite shortening at 0.5 to 5 uM incubated for 1 hr by confocal microsocopic analysis; assay type: functional, cell-based; details: dose 0.5-5 µM
[6] = Toxicity in ICR mouse assessed as emesis at 15 mg/kg, ip measured after 15 days; assay type: organism-based; details: in vivo, 360 h, time 15 day
[7] = Toxicity in ICR mouse assessed as diarrhea at 15 mg/kg, ip measured after 15 days; assay type: organism-based; details: in vivo, 360 h, time 15 day
[8] = Toxicity in ICR mouse assessed as swimming motility impairment at 15 mg/kg, ip measured after 15 days; assay type: organism-based; details: in vivo, 360 h, time 15 day
[9] = molecular target: T3, Acetylcholinesterase (Mus musculus) (UniProt P21836); test: Inhibition of mouse AChE using acetylthiocholine iodide as substrate at 1 uM incubated for 20 mins by Ellman's method relative to control
T3 sequence (whole entry): T1 sequence (P21836 whole entry)

| Compound | IC50 [1] [µM] | inhibition [2] [%] | IC50 [3] [µM] | other results |
| --- | --- | --- | --- | --- |
| Cc1ccc2c(NCCCCCCNc3nc(-c4ccncc4)cc(=O)n3C)c3c(nc2c1)CCCC3 | 239 | < 60 | – | – |
| Cn1c(NCCNc2c3c(nc4ccccc24)CCCC3)nc(-c2ccncc2F)cc1=O | 4.98 | – | 1.18 | – |
| Cn1c(NCCCCCCCNc2c3c(nc4ccccc24)CCCC3)nc(-c2ccncc2F)cc1=O | 352 | – | 67.2 | – |
| Cn1c(NCCCCCNc2c3c(nc4ccccc24)CCCC3)nc(-c2ccncc2)cc1=O | 0.4 | – | 1.28 | – |
| Cn1c(NCCCCCCNc2c3c(nc4cc(Cl)ccc24)CCCC3)nc(-c2ccncc2F)cc1=O | 52.7 | – | 178 | – |
| Cn1c(NCCCCCCCNc2c3c(nc4cc(F)ccc24)CCCC3)nc(-c2ccncc2F)cc1=O | 134 | – | 104 | – |
| O=c1sn(-c2cccc3ccccc23)c(=O)n1Cc1ccccc1 | – | – | – | Activity [4]: Active; Activity [5]: Active |
| Cn1c(NCCCCCCNc2c3c(nc4cc(Cl)ccc24)CCCC3)nc(-c2ccncc2)cc1=O | 53 | < 60 | – | – |
| Cn1c(NCCCCCCCNc2c3c(nc4ccc(F)cc24)CCCC3)nc(-c2ccncc2)cc1=O | 1800 | < 60 | – | – |
| Cn1c(NCCCCCCCNc2c3c(nc4cc(Cl)ccc24)CCCC3)nc(-c2ccncc2)cc1=O | 37.5 | < 60 | – | – |
| Cn1c(NCCCCCCCNc2c3c(nc4ccc(F)cc24)CCCC3)nc(-c2ccncc2F)cc1=O | 2380 | – | 96.1 | – |
| Cn1c(NCCCCCCNc2c3c(nc4ccc(F)cc24)CCCC3)nc(-c2ccncc2)cc1=O | 2420 | < 60 | – | – |
| Cn1c(NCCNc2c3c(nc4cc(Cl)ccc24)CCCC3)nc(-c2ccncn2)cc1=O | 0.42 | < 50 | – | – |
| Cn1c(NCCNc2c3c(nc4ccc(Cl)cc24)CCCC3)nc(-c2ccncc2F)cc1=O | 9.8 | – | 8.13 | – |
| Cn1c(NCCCCNc2c3c(nc4ccccc24)CCCC3)nc(-c2ccncc2)cc1=O | 1.42 | – | 0.92 | – |
| Cn1c(NCCNc2c3c(nc4ccc(Cl)cc24)CCCC3)nc(-c2ccncc2)cc1=O | 10.9 | < 50 | – | – |
| COc1ccc(CNC(=O)Nc2ncc([N+](=O)[O-])s2)cc1 | > 40 | – | – | – |
| Cn1c(NCCNc2c3c(nc4ccccc24)CCCC3)nc(-c2ccncn2)cc1=O | 0.8 | – | 5.63 | – |
| Cc1ccc2c(NCCNc3nc(-c4ccncc4)cc(=O)n3C)c3c(nc2c1)CCCC3 | 1.89 | < 50 | – | – |
| Cn1c(NCCCCCCNc2c3c(nc4cc(F)ccc24)CCCC3)nc(-c2ccncc2F)cc1=O | 134 | – | 174 | – |
| Cn1c(NCCCCCCCNc2c3c(nc4cc(F)ccc24)CCCC3)nc(-c2ccncc2)cc1=O | 124 | < 60 | – | – |
| Cn1c(NCCNc2c3c(nc4ccc(F)cc24)CCCC3)nc(-c2ccncc2)cc1=O | 0.37 | < 50 | – | – |
| Cn1c(NCCNc2c3c(nc4ccccc24)CCCC3)nc(-c2ccncc2)cc1=O | 1.06 | – | 4.04 | – |
| Cc1ccc2nc3c(c(NCCNc4nc(-c5ccncc5)cc(=O)n4C)c2c1)CCCC3 | 20 | < 50 | – | – |
| Cn1c(NCCNc2c3c(nc4cc(Br)ccc24)CCCC3)nc(-c2ccncc2)cc1=O | 0.44 | < 50 | – | – |
| Cn1c(NCCNc2c3c(nc4cc(F)ccc24)CCCC3)nc(-c2ccncn2)cc1=O | 0.18 | < 50 | – | – |

| Compound | IC50 [1] [µM] | inhibition [2] [%] | IC50 [3] [µM] | other results |
| --- | --- | --- | --- | --- |
| Cc1ccc2c(NCCCCCCCNc3nc(-c4ccncc4)cc(=O)n3C)c3c(nc2c1)CCCC3 | 145 | < 60 | – | – |
| Cn1c(NCCCCCCNc2c3c(nc4ccccc24)CCCC3)nc(-c2ccncc2)cc1=O | 0.12 | – | 0.52 | – |
| Cn1c(NCCNc2c3c(nc4cc(C(F)(F)F)ccc24)CCCC3)nc(-c2ccncc2)cc1=O | 11.3 | < 50 | – | – |
| Cn1c(NCCCCCCCNc2c3c(nc4cc(Br)ccc24)CCCC3)nc(-c2ccncc2F)cc1=O | 58.1 | – | 91 | – |
| Cn1c(NCCNc2c3c(nc4ccc(Cl)cc24)CCCC3)nc(-c2ccncn2)cc1=O | 18.8 | < 50 | – | – |
| Cn1c(NCCNc2c3c(nc4cc(Cl)ccc24)CCCC3)nc(-c2ccncc2)cc1=O | 0.49 | < 50 | – | – |
| Cn1c(NCCCCCCNc2c3c(nc4ccccc24)CCCC3)nc(-c2ccncc2F)cc1=O | 631 | – | 126 | – |
| Cn1c(NCCCCCCNc2c3c(nc4ccc(F)cc24)CCCC3)nc(-c2ccncc2F)cc1=O | 2210 | – | 154 | – |
| Cn1c(NCCNc2c3c(nc4cc(Cl)ccc24)CCCC3)nc(-c2ccncc2F)cc1=O | 0.16 | – | 14 | – |
| COc1cc2c(cc1OC)C(=O)C(CC1CCN(Cc3ccccc3)CC1)C2 (stereo not given) [DONEPEZIL] | – | – | > 100 | – |
| COc1ccc2c(NCCNc3nc(-c4ccncn4)cc(=O)n3C)c3c(nc2c1)CCCC3 | 23 | < 50 | – | – |
| COc1ccc2c(NCCNc3nc(-c4ccncc4F)cc(=O)n3C)c3c(nc2c1)CCCC3 | 9.92 | – | 19 | – |
| Cn1c(NCCCCCCCNc2c3c(nc4cc(Br)ccc24)CCCC3)nc(-c2ccncc2)cc1=O | 39 | < 60 | – | – |
| Cn1c(NCCCCCCNc2c3c(nc4cc(Br)ccc24)CCCC3)nc(-c2ccncc2)cc1=O | 45 | < 60 | – | – |
| COc1ccc2nc3c(c(NCCNc4nc(-c5ccncc5)cc(=O)n4C)c2c1)CCCC3 | 15.7 | < 50 | – | – |
| Cc1ccc2c(NCCCCCCCNc3nc(-c4ccncc4F)cc(=O)n3C)c3c(nc2c1)CCCC3 | 174 | – | 137 | – |
| Cn1c(NCCNc2c3c(nc4cc(F)ccc24)CCCC3)nc(-c2ccncc2)cc1=O | 3.9 | < 50 | – | – |
| Cn1c(NCCCCCCNc2c3c(nc4cc(F)ccc24)CCCC3)nc(-c2ccncc2)cc1=O | 163 | < 60 | – | – |
| Cn1c(NCCCCCCCNc2c3c(nc4ccccc24)CCCC3)nc(-c2ccncc2)cc1=O | 0.13 | – | 0.33 | Activity [6]: Non-Toxic; Activity [7]: Non-Toxic; Activity [8]: Non-Toxic |
| Cn1c(NCCNc2c3c(nc4ccc(C(C)(F)F)cc24)CCCC3)nc(-c2ccncc2)cc1=O | – | < 50 | – | inhibition [9]: < 50% |
| Cc1ccc2c(NCCCCCCNc3nc(-c4ccncc4F)cc(=O)n3C)c3c(nc2c1)CCCC3 | 298 | – | 239 | – |
| Cn1c(NCCNc2c3c(nc4ccc(Br)cc24)CCCC3)nc(-c2ccncc2)cc1=O | 15.8 | < 50 | – | – |
| Cn1c(NCCCNc2c3c(nc4ccccc24)CCCC3)nc(-c2ccncc2)cc1=O | 2.85 | < 50 | – | – |
| COc1ccc2c(NCCNc3nc(-c4ccncc4)cc(=O)n3C)c3c(nc2c1)CCCC3 | 8.3 | < 50 | – | – |
| Cn1c(NCCCCCCNc2c3c(nc4cc(Br)ccc24)CCCC3)nc(-c2ccncc2F)cc1=O | 70.3 | – | 179 | – |
| Cn1c(NCCNc2c3c(nc4cc(F)ccc24)CCCC3)nc(-c2ccncc2F)cc1=O | 0.73 | – | 11.9 | – |
